Test results taken from ChEMBL document CHEMBL1140182, “Modeling binding modes of alpha7 nicotinic acetylcholine receptor with ligands: the roles of Gln117 and other residues of the receptor in agonist binding” (J Med Chem, 2008).

How the values were obtained:
[1] = target: T1, Neuronal acetylcholine receptor subunit alpha-7 (Homo sapiens, UniProt P36544); experiment: Displacement of [125I]alpha-bungarotoxin from alpha7 nAChR
[2] = target: T1, Neuronal acetylcholine receptor subunit alpha-7; experiment: Agonist activity at human cloned wild-type alpha7 nAChR expressed in Xenopus laevis oocytes assessed as channel opening by voltage clamp electrophysiology; assay type: functional, cell-based, Oocyte
[3] = Agonist activity at human cloned alpha7 nAChR Gln117Phe mutant expressed in Xenopus laevis oocytes assessed as channel opening by voltage clamp electrophysiology; assay type: functional, cell-based; settings: Oocyte

T1 sequence (P36544 whole entry): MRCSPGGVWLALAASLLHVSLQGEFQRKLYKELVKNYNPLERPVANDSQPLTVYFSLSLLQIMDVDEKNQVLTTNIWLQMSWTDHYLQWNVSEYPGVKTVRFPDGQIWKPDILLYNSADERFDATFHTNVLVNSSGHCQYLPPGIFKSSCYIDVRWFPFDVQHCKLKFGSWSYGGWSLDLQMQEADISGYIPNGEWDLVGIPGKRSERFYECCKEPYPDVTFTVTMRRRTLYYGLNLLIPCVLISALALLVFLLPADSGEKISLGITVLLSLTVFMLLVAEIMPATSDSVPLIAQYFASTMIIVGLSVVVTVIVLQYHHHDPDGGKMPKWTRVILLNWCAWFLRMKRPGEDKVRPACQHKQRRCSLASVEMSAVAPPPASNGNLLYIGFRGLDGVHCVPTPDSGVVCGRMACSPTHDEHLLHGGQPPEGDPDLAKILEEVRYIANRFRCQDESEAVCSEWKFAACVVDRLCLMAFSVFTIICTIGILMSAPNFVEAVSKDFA

Structure (SMILES) | Kd [1] [nM] | EC50 [2] [nM] | EC50 [3] [nM]
O=C1NC[C@@]2(CN3CCC2CC3)O1 | 92 | 3600 | 22300
CCN1C[C@@]2(CN3CCC2CC3)OC1=O | 690 | – | –
COc1ccc(/C=C2\CCCN=C2c2cccnc2)c(OC)c1 [GTS-21] | 158 | – | –
